Laboratory results published in BindingDB's records for doi:10.1021/jm970519e (Smithkline Beecham Pharmaceuticals, 1998).

How the values were obtained:
[1] = molecular target: 5-hydroxytryptamine receptor 2A (Homo sapiens, UniProt P28223)
[2] = molecular target: 5-hydroxytryptamine receptor 6 (Homo sapiens, UniProt P50406)
[3] = molecular target: 5-hydroxytryptamine receptor 1E (Homo sapiens, UniProt P28566)
[4] = molecular target: T1, Alpha-1B adrenergic receptor (Homo sapiens, UniProt P35368)
T1 sequence (P35368 whole entry): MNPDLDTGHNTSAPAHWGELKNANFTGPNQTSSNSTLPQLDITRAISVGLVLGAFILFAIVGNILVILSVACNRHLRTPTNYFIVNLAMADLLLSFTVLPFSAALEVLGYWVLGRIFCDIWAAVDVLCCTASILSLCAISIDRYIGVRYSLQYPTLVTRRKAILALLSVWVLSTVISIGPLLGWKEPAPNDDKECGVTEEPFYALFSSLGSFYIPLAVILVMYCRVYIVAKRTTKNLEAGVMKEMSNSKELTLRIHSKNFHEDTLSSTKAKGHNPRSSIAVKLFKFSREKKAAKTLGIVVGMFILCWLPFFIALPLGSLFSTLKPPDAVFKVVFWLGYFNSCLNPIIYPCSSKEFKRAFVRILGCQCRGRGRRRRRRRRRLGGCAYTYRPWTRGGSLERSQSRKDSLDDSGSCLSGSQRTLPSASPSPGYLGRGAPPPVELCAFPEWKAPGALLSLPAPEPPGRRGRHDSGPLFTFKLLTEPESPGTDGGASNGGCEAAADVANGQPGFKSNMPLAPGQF

[5] = molecular target: T2, 5-hydroxytryptamine receptor 2C (Homo sapiens, UniProt P28335)
T2 sequence (P28335 whole entry): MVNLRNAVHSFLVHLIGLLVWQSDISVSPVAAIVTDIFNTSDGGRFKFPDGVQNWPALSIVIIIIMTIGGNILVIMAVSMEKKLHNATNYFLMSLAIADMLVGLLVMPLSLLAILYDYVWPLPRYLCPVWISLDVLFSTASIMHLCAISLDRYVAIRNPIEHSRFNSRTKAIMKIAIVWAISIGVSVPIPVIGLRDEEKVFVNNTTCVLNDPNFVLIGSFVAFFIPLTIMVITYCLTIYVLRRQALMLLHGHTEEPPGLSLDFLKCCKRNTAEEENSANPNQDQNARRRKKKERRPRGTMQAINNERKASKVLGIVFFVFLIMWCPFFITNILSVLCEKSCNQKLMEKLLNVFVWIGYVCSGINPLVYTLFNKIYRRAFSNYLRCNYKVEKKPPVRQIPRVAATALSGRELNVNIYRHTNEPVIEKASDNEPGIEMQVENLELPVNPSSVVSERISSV

Sequence of 5-hydroxytryptamine receptor 6 (P50406 whole entry): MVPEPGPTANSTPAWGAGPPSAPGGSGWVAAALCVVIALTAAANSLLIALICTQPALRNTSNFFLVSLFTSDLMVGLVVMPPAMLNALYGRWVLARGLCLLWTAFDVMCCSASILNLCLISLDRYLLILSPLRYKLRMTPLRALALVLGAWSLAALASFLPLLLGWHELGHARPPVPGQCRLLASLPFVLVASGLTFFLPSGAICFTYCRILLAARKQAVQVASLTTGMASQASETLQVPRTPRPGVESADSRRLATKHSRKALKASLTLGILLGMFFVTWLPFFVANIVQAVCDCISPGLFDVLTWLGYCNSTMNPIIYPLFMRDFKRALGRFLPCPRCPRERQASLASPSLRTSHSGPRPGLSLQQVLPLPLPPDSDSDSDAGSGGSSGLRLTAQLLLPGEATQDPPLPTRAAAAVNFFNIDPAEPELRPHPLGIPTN
Sequence of 5-hydroxytryptamine receptor 1E (P28566 whole entry): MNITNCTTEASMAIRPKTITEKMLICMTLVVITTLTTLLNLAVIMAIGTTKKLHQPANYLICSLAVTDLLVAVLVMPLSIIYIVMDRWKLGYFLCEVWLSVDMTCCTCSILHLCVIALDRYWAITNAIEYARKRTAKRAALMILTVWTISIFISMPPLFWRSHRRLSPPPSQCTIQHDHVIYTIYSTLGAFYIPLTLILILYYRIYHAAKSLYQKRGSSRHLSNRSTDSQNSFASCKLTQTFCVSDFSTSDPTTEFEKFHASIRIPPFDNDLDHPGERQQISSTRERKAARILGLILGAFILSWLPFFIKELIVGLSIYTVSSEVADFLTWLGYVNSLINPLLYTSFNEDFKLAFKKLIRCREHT
Sequence of 5-hydroxytryptamine receptor 2A (P28223 whole entry): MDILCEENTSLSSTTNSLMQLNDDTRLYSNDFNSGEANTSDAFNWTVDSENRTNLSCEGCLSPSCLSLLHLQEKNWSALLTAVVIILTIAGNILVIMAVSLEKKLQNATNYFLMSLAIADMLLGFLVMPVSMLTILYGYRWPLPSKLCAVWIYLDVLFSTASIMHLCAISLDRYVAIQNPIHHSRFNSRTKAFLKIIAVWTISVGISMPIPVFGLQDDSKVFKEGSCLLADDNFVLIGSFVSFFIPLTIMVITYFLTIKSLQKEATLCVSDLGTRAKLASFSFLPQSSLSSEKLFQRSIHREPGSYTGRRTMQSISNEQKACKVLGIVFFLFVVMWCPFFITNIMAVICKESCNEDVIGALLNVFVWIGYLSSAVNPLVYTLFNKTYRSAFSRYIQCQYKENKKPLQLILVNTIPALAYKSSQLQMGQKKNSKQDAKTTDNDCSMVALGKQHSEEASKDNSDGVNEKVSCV

- Ki [1]: > 10 µM
- Ki [2]: > 10 µM
- Ki [3]: > 10 µM
- Ki [4]: > 10 µM
- Ki [5]: > 10 µM
SMILES: Cc1cccc(S(=O)(=O)N(C)[C@H](C)CCN2CCC(C)CC2)c1 [SB-258719]
